ChEMBL document CHEMBL1201862, “PubChem BioAssay data set” (2004)
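Results reflect a 48-hour exposure of cells in 96-well plates to compound at five concentrations. GI50 marks 50% less growth.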 Calls of active or inactive are those of the source. Cut-off read from the data, not from the text of the source: active = GI50 up to about 1.1 µM and inactive = higher.

Key:
Experiment in all cases: NCI anticancer screen, dose series, 48 h
IGROV-1 = system: IGROV-1
K562 = system: K562
RPMI-8226 = system: RPMI-8226
SK-MEL-28 = system: SK-MEL-28
SK-OV-3 = system: SK-OV-3
T47D = system: T47D
CCRF-CEM = system: CCRF-CEM
SNB-19 = system: SNB-19
COLO 205 = system: COLO 205
OVCAR-4 = system: OVCAR-4
LOX IMVI = system: LOX IMVI
HCC 2998 = system: HCC 2998
OVCAR-5 = system: OVCAR-5
HT-29 = system: HT-29
RXF 393 = system: RXF 393
ACHN = system: ACHN
MDA-N = system: MDA-N
SF-539 = system: SF-539
OVCAR-8 = system: OVCAR-8
SR = system: SR

SMILES	GI50 (IGROV-1)	GI50 (K562)	GI50 (RPMI-8226)	GI50 (SK-MEL-28)	GI50 (SK-OV-3)	GI50 (T47D)	GI50 (CCRF-CEM)	GI50 (SNB-19)	GI50 (COLO 205)	GI50 (OVCAR-4)	GI50 (LOX IMVI)	GI50 (HCC 2998)	GI50 (OVCAR-5)	GI50 (HT-29)	GI50 (RXF 393)	GI50 (ACHN)	GI50 (MDA-N)	GI50 (SF-539)	GI50 (OVCAR-8)	GI50 (SR)
COc1ccc2c(c1)OC1c3ccccc3OCC21 (stereo unspecified)	> 100 µM (inactive)	31.8 µM (inactive)	71 µM (inactive)	> 100 µM (inactive)	> 100 µM (inactive)	72.6 µM (inactive)	58.7 µM (inactive)	93.3 µM (inactive)	> 100 µM (inactive)	> 100 µM (inactive)	81.3 µM (inactive)	39.9 µM (inactive)	> 100 µM (inactive)	25.6 µM (inactive)	77.4 µM (inactive)	> 100 µM (inactive)	36.6 µM (inactive)	> 100 µM (inactive)	> 100 µM (inactive)	
Cc1cccc(C(C)(C)C)c1NC(=O)/C(Cc1nc2ccc([N+](=O)[O-])cc2nc1O)=N\NC(=O)C[N+](C)(C)C	> 100 µM (inactive)	> 100 µM (inactive)	84.5 µM (inactive)	> 100 µM (inactive)	> 100 µM (inactive)	53.5 µM (inactive)		> 100 µM (inactive)	71.8 µM (inactive)	> 100 µM (inactive)	51.3 µM (inactive)	> 100 µM (inactive)	> 100 µM (inactive)	> 100 µM (inactive)		> 100 µM (inactive)	> 100 µM (inactive)	> 100 µM (inactive)	> 100 µM (inactive)	
CCOC(=O)C1=C(C)N(C)C23OC4(C(=O)OC)CC2c2ccccc2C1N3C4=O (stereo unspecified)	> 100 µM (inactive)	83 µM (inactive)	44.8 µM (inactive)	> 100 µM (inactive)	> 100 µM (inactive)	> 100 µM (inactive)	79.6 µM (inactive)	> 100 µM (inactive)	> 100 µM (inactive)	> 100 µM (inactive)	> 100 µM (inactive)	12.4 µM (inactive)	> 100 µM (inactive)	51.9 µM (inactive)		> 100 µM (inactive)	14.2 µM (inactive)	22.3 µM (inactive)	> 100 µM (inactive)	16.5 µM (inactive)
CC(C(N)=O)N(C)C(=O)c1cc2ccccc2[n+](Cc2ccccc2)c1 (stereo unspecified)	> 100 µM (inactive)	> 100 µM (inactive)	> 100 µM (inactive)	> 100 µM (inactive)		> 100 µM (inactive)	> 100 µM (inactive)	> 100 µM (inactive)	> 100 µM (inactive)	> 100 µM (inactive)		> 100 µM (inactive)	> 100 µM (inactive)	> 100 µM (inactive)	> 100 µM (inactive)	> 100 µM (inactive)	> 100 µM (inactive)	> 100 µM (inactive)	> 100 µM (inactive)	
O=C(Nc1ccccc1)n1[nH]c(=O)n(-c2ccccc2)c1=O		> 100 µM (inactive)	> 100 µM (inactive)	> 100 µM (inactive)	> 100 µM (inactive)	> 100 µM (inactive)	> 100 µM (inactive)	> 100 µM (inactive)	> 100 µM (inactive)	> 100 µM (inactive)	> 100 µM (inactive)	> 100 µM (inactive)		> 100 µM (inactive)		> 100 µM (inactive)	> 100 µM (inactive)	> 100 µM (inactive)	> 100 µM (inactive)	> 100 µM (inactive)
O=C(/C=C/c1ccc(Cl)cc1)c1ccccc(=O)c1O	1.82 µM (inactive)	1.17 µM (inactive)	1.07 µM (active)	3.43 µM (inactive)	3.56 µM (inactive)	4.36 µM (inactive)	0.255 µM (active)	2.72 µM (inactive)	1.23 µM (inactive)	0.673 µM (active)	1.29 µM (inactive)	0.579 µM (active)	6.34 µM (inactive)	2.58 µM (inactive)	2.81 µM (inactive)	0.881 µM (active)		2.32 µM (inactive)	0.698 µM (active)	0.238 µM (active)
N[C@@H](CCC(=O)NCP(=O)(O)O)C(=O)O	> 100 µM (inactive)	> 100 µM (inactive)	> 100 µM (inactive)	> 100 µM (inactive)		> 100 µM (inactive)		> 100 µM (inactive)	> 100 µM (inactive)			> 100 µM (inactive)	> 100 µM (inactive)	> 100 µM (inactive)		> 100 µM (inactive)	> 100 µM (inactive)	> 100 µM (inactive)	> 100 µM (inactive)	> 100 µM (inactive)
CC(=O)C(I(OS(=O)(=O)c1ccc(C)cc1)c1ccccc1)=P(c1ccccc1)(c1ccccc1)c1ccccc1	35.6 µM (inactive)	30.6 µM (inactive)	21.4 µM (inactive)	18 µM (inactive)	43.6 µM (inactive)	27 µM (inactive)	26.9 µM (inactive)	38.5 µM (inactive)	17.1 µM (inactive)	14.8 µM (inactive)		18 µM (inactive)	23 µM (inactive)	18.9 µM (inactive)	42.1 µM (inactive)	> 100 µM (inactive)	15 µM (inactive)	18.2 µM (inactive)	32.6 µM (inactive)	
CN1CCc2c(sc3ncn(Nc4ccc(Cl)cc4)c(=N)c23)C1	> 100 µM (inactive)	> 100 µM (inactive)	> 100 µM (inactive)	> 100 µM (inactive)	> 100 µM (inactive)	> 100 µM (inactive)	> 100 µM (inactive)	> 100 µM (inactive)	> 100 µM (inactive)	> 100 µM (inactive)	> 100 µM (inactive)		> 100 µM (inactive)	> 100 µM (inactive)	> 100 µM (inactive)	> 100 µM (inactive)	> 100 µM (inactive)	> 100 µM (inactive)	> 100 µM (inactive)	
CC(OC(C)(C)C)[C@H](NC(=O)OC(C)(C)C)C(=O)O (stereo partly specified)	> 100 µM (inactive)	> 100 µM (inactive)	> 100 µM (inactive)	> 10 µM (inactive)	> 100 µM (inactive)	> 100 µM (inactive)	> 100 µM (inactive)	> 100 µM (inactive)	> 100 µM (inactive)	> 100 µM (inactive)	> 100 µM (inactive)	> 100 µM (inactive)	> 100 µM (inactive)	> 100 µM (inactive)	> 10 µM (inactive)	> 100 µM (inactive)		> 100 µM (inactive)	> 100 µM (inactive)	> 100 µM (inactive)
CO[C@H]1[C@@H](O)[C@H](O[C@@H]2C[C@H]3CC[C@@H]4[C@H](CC[C@]5(C)[C@@H](C6=CC(=O)OC6)CC[C@]45O)[C@@]3(C)[C@H](OC(C)=O)C2)O[C@@H](C)[C@H]1O	1.46 µM (inactive)	1.96 µM (inactive)	2.05 µM (inactive)	4.34 µM (inactive)	2.78 µM (inactive)	3.19 µM (inactive)	0.65 µM (active)	4.28 µM (inactive)	2.06 µM (inactive)	1.39 µM (inactive)	1.52 µM (inactive)	7.18 µM (inactive)	2.18 µM (inactive)	3.04 µM (inactive)	0.402 µM (active)	0.393 µM (active)	1.64 µM (inactive)	0.573 µM (active)	1.73 µM (inactive)	
Cc1cc2c(cc1C)[n+]([O-])c(N1CCN(c3ccc([N+](=O)[O-])cc3)CC1)c(C#N)[n+]2[O-]	25.3 µM (inactive)		> 100 µM (inactive)	> 100 µM (inactive)	14.2 µM (inactive)	16.3 µM (inactive)	> 100 µM (inactive)	18 µM (inactive)	> 100 µM (inactive)	39.4 µM (inactive)	25.2 µM (inactive)	> 100 µM (inactive)	37.6 µM (inactive)	> 100 µM (inactive)	13 µM (inactive)	15.3 µM (inactive)	> 100 µM (inactive)		16.6 µM (inactive)	
COC(=O)c1cc(OC)c(OC)c(OC)c1-c1cc2c(cc1C=O)OCO2	> 10 µM (inactive)	> 10 µM (inactive)	> 10 µM (inactive)	> 10 µM (inactive)	> 10 µM (inactive)	> 10 µM (inactive)	> 10 µM (inactive)	> 10 µM (inactive)	> 10 µM (inactive)	> 10 µM (inactive)	> 10 µM (inactive)	> 10 µM (inactive)	> 10 µM (inactive)	> 10 µM (inactive)	> 10 µM (inactive)	> 10 µM (inactive)	> 10 µM (inactive)	> 10 µM (inactive)	> 10 µM (inactive)	
COc1cc(NS(C)(=O)=O)ccc1Nc1c2ccccc2nc2ccccc12 [AMSACRINE]	2.4 µM (inactive)	0.902 µM (active)	0.352 µM (active)	2.59 µM (inactive)	0.398 µM (active)	0.441 µM (active)	0.0561 µM (active)	0.296 µM (active)	2.86 µM (inactive)	4.05 µM (inactive)	0.179 µM (active)	1.24 µM (inactive)	1.58 µM (inactive)	1.77 µM (inactive)	1.55 µM (inactive)	0.0525 µM (active)	3.32 µM (inactive)	0.207 µM (active)	0.571 µM (active)	
CC(C)=CCC/C(C)=C/CC/C(C)=C/CSc1ccccc1C(=O)O [SALIRASIB]	16.5 µM (inactive)	36.6 µM (inactive)	32 µM (inactive)	21.1 µM (inactive)	25.4 µM (inactive)	> 10 µM (inactive)	28.3 µM (inactive)	21 µM (inactive)	23.6 µM (inactive)	36.9 µM (inactive)	19.5 µM (inactive)	18 µM (inactive)	19.2 µM (inactive)	20.5 µM (inactive)	27.2 µM (inactive)	37.7 µM (inactive)	22.3 µM (inactive)	17.5 µM (inactive)	17.4 µM (inactive)	
